According to patent publication US20050153021A1, “Calcium-fortified protein-based beverage containing calcium (lactate) gluconate citrate” (PURAC BIOCHEM BV, priority 2003, published 2005):

Tests used:
[1] = Stability test in presence of protein: calcium salt added to milk, heat treatment; type: physicochemical; details: 600 ppm calcium added
[2] = Stability test in presence of protein: calcium salt added to soy milk, heat treatment; type: physicochemical; details: 600 ppm calcium added

Q: What does the source list for `CC(O)C(=O)O.O=C(O)[C@H](O)[C@@H](O)[C@H](O)[C@H](O)CO.O=C([O-])CC(O)(CC(=O)[O-])C(=O)O.[Ca+2]` [calcium lactate gluconate citrate]?
A: protein stability (coagulation) of the fortified milk after heat treatment [1]: coaglulated a little to become a quark like substance; protein stability (coagulation / viscosity) of the fortified soy milk after heat treatment [2]: somewhat increased viscosity after heat treatment, but was still pourable

Q: Which “protein stability (coagulation) of the fortified milk after heat treatment” value [1] does the source give for `CC(O)C(=O)[O-].O=C([O-])[C@H](O)[C@@H](O)[C@H](O)[C@H](O)CO.[Ca+2]` [calcium lactate gluconate] here?
A: completely coagulated to a firm substance

Q: What about the “protein stability (coagulation / viscosity) of the fortified soy milk after heat treatment” value [2] of the same compound?
A: completely coagulated to a firm substance
